From PMC6484527 (Slas Discovery, 2018)
Read-outs that look alike come from different tables or passages of the source.

Legend:
[1] = target: T1, B-Raf (Homo sapiens, UniProt P15056, V600E); assay: cell-based; type: cell-based; details: for EC50: B-Raf ITDRFCETSA pEC50, 2 h incubation with live A375 cells, mean ± standard deviation of ⩾3 technical repeats
[2] = target: T1, B-Raf; assay: B-Raf CETSA HT single-concentration screen of kinase inhibitor library; type: cell-based; details: 30 µM, 2 h incubation with live A375 cells, 49 °C heatshock, two technical repeats
[3] = target: purified B-Raf protein (Homo sapiens, UniProt P15056); assay: Differential scanning fluorimetry with purified B-Raf protein; type: binding; details: same concentration (30 µM); data not shown
purified B-Raf protein, sequence (P15056 whole entry): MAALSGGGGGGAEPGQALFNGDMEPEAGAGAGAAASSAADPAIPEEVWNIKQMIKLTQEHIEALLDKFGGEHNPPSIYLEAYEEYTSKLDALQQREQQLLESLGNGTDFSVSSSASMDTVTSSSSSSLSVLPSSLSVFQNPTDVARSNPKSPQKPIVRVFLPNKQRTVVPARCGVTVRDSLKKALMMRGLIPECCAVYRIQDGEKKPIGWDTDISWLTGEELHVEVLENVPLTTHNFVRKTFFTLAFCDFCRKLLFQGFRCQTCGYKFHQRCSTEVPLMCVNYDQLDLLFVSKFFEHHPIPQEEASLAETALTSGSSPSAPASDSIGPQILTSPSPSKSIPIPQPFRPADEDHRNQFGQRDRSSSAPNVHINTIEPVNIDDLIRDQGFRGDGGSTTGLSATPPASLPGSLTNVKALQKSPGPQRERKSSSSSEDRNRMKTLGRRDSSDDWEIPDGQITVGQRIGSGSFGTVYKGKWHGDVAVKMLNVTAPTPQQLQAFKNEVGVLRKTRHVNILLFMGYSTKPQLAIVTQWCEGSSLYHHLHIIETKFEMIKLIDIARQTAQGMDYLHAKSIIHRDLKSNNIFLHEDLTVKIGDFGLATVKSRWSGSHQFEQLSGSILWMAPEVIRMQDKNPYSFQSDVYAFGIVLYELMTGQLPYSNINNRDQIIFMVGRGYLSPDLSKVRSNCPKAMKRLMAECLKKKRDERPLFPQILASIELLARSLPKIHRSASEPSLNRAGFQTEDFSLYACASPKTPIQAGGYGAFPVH

[4] = A375 cells, at least three technical repeats

T1 sequence (P15056 whole entry V600E): as the sequence (P15056 whole entry) above, with V600E counted along it

SMILES | B-Raf ITDRFCETSA activity (in words) [1, 4] | Thermal stabilization of B-Raf in CETSA HT screen (hit call) [2] | B-Raf ITDRFCETSA activity (in words) [1] | other results
Cc1ccc(NC(=O)c2cccc(C(C)(C)C#N)c2)cc1Nc1ccc2ncn(C)c(=O)c2c1 [AZ628] | clear evidence of target engagement |  |  | 
COc1cc2ncnc(Oc3cccc(NC(=O)Nc4cc(C(C)(C)C(F)(F)F)on4)c3)c2cc1OC [CEP-32496] |  | hits |  | 
CNS(=O)(=O)Nc1nccc(Cc2c(C)c3ccc(Oc4ncccn4)cc3oc2=O)c1F [CH-5126766] | weak activity |  |  | EC50 [1]: 10 µM
C[C@@H](Oc1cc(-c2cnn(C3CCNCC3)c2)cnc1N)c1c(Cl)ccc(F)c1Cl [Crizotinib, crizotinib] | inactive |  |  | 
CCn1c(=O)c(-c2cc(NC(=O)Nc3ccccc3)c(F)cc2Br)cc2cnc(NC)cc21 [DCC-2618] |  | Activity was also observed |  | Thermal stabilization of purified B-Raf protein by differential scanning fluorimetry [3]: showed thermal stabilization
CC(C)(C)c1nc(-c2cccc(NS(=O)(=O)c3c(F)cccc3F)c2F)c(-c2ccnc(N)n2)s1 [Dabrafenib, dabrafenib] |  | active | clear evidence of target engagement | 
O=C(NOCCO)c1ccc2cncn2c1Nc1ccc(I)cc1F [GDC-0623] | inactive |  |  | EC50 [1]: > 31.6 µM
OCCn1cc(-c2ccc3c(c2)CC/C3=N\O)c(-c2ccncc2)n1 [GDC-0879] |  | hits |  | 
CNc1ncc2cc(-c3cc(NC(=O)NCCC(C)(C)C)c(F)cc3C)c(C)nc2n1 [LY3009120] |  |  | clear evidence of target engagement | 
CCCS(=O)(=O)Nc1ccc(F)c(C(=O)c2c[nH]c3ncc(Cl)cc23)c1F [PLX4720] |  |  | clear evidence of target engagement | 
O=C(Nc1ccc2[nH]nc(-c3ccncc3)c2c1)[C@@H]1CCN(CC(=O)N2CCN(c3ccc(-c4ncccn4)cc3)CC2)C1 [SCH772984] | inactive |  |  | EC50 [1]: > 31.6 µM
CCCS(=O)(=O)Nc1ccc(F)c(C(=O)c2c[nH]c3ncc(-c4ccc(Cl)cc4)cc23)c1F [Vemurafenib, vemurafenib] |  | active | clear evidence of target engagement | 
Cc1ccc(C(=O)Nc2ccc(CN3CCN(C)CC3)c(C(F)(F)F)c2)cc1C#Cc1cnc2cccnn12 [ponatinib] |  | showed activity |  | 
